Source: ChEMBL document CHEMBL3856234, “Development of Multifunctional Pyrimidinylthiourea Derivatives as Potential Anti-Alzheimer Agents” (J Med Chem, 2016)
pIC50: −log10 of the molar value. Calls of active or inactive are those of the source. No cut-off for these calls is given here.

target: T1, Acetylcholinesterase (Rattus norvegicus) (UniProt P37136); experiment: Inhibition of rat cortex AChE at 40 uM using acetylthiocholine iodide as substrate measured after 20 mins by Ellman's method relative to control
T1 sequence (whole entry): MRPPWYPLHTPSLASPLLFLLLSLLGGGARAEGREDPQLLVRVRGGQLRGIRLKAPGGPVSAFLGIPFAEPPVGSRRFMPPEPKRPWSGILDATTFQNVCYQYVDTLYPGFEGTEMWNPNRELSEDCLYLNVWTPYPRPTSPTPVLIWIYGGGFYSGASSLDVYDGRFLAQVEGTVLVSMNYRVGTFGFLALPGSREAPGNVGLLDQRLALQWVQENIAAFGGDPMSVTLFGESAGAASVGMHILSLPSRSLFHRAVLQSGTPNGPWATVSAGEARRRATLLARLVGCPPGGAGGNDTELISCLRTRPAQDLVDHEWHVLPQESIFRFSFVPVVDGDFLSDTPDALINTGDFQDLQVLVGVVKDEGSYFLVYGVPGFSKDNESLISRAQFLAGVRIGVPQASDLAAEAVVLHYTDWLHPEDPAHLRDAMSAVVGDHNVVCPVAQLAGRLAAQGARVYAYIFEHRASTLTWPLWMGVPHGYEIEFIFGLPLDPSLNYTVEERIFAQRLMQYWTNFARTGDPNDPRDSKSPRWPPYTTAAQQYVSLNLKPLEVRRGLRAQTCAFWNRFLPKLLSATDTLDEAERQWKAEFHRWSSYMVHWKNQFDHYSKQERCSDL

Compound | inhibition
CCNC(=S)Nc1cc(-n2cnc3ccccc32)ncn1 | 66.2%
CCNC(=S)Nc1cc(-n2ccnn2)ncn1 | 61.5%
CCNC(=S)Nc1cc(-n2cccc2)ncn1 | 13.8%
CNC(=S)Nc1cc(-n2cccn2)ncn1 | 46%
CCNC(=S)Nc1nccc(-n2ccnc2)n1 | 64.9%
Nc1cc(-n2cccn2)ncn1 | 18.9%
CCNc1cc(-n2cccn2)ncn1 | 32.1%
CCNC(=S)Nc1cc(NCc2ccccc2)ncn1 | 10.9%
S=C(NCc1ccccc1)Nc1cc(-n2cccn2)ncn1 | 17.3%
CCNC(=S)Nc1cc(N2CCOCC2)ncn1 | 54.1%
c1ccc(CNc2cc(-n3cccn3)ncn2)cc1 | 10.8%
CCNC(=S)Nc1cc(N2CCCC2)ncn1 | 39.2%
CCCNC(=S)Nc1cc(-n2cccn2)ncn1 | 64%
S=C(NCc1cccc(Cl)c1)Nc1cc(-n2cccn2)ncn1 | 0%
CCNC(=S)Nc1cc(-n2cncn2)ncn1 | 66.6%
CC(=O)Nc1cc(-n2cccn2)ncn1 | 5.09%
S=C(Nc1cc(-n2cccn2)ncn1)NC1CCCCC1 | 11.2%
CC(C)(C)NC(=S)Nc1cc(-n2cccn2)ncn1 | 11.3%
CCNC(=S)Nc1ccnc(-n2ccnc2)n1 | 46.6%
CCCc1cc(-n2cccn2)ncn1 | 9.88%

tested on: not listed separately; experiment: Inhibition of cupric ion-induced aggregation of amyloid beta (1 to 42) (unknown origin) at compound:amyloid beta (1 to 42):Cu2+ ratio of 2:1:1 measured after 24 hrs by TEM analysis

Compound | inhibition
Oc1c(I)cc(Cl)c2cccnc12 | Active

target: T2, Acetylcholinesterase (Rattus norvegicus, UniProt P37136); experiment: Inhibition of rat cortex AChE using acetylthiocholine iodide as substrate measured after 20 mins by Ellman's method
T2 sequence (P37136 whole entry): T1 sequence (whole entry)

Compound | pIC50
CCNC(=S)Nc1cc(-n2ccnc2C)ncn1 | 5.21
CCNC(=S)Nc1cc(-n2cnc([N+](=O)[O-])c2)ncn1 | 6.77
CCNC(=S)Nc1cc(-n2cnc3ccccc32)ncn1 | 5.11
CCNC(=S)Nc1cc(-n2ccnn2)ncn1 | 4.84
CCNC(=S)Nc1cc(-n2cccc2)ncn1 | < 4.40
CCNC(=S)Nc1cc(-n2ccnc2CC)ncn1 | 5.17
CCNC(=S)Nc1nccc(-n2ccnc2)n1 | 5.07
CCNC(=S)Nc1cc(-n2cnc(Cl)c2)ncn1 | 6.21
CCNC(=S)Nc1cc(NCc2ccccc2)ncn1 | < 4.40
CCNC(=S)Nc1cc(N2CCOCC2)ncn1 | 4.63
CCNC(=S)Nc1cc(-n2cnc(CNC3CCCCC3)c2)ncn1 | 6.37
CCNC(=S)Nc1cc(-n2cnc(Br)c2)ncn1 | 6.01
CCNC(=S)Nc1cc(N2CCCC2)ncn1 | < 4.40
CCCNC(=S)Nc1cc(-n2cccn2)ncn1 | 4.66
CCNC(=S)Nc1cc(-n2cncn2)ncn1 | 5.98
CCNC(=S)Nc1cc(-n2cnc(C(=O)OC)c2)ncn1 | 6.46
CCNC(=S)Nc1cc(-n2cnc(C)c2)ncn1 | 5.49
CCNC(=S)Nc1cc(-n2cnc(I)c2)ncn1 | 6.20
CCNC(=S)Nc1cc(-n2cnc(CO)c2)ncn1 | 6.00
CCNC(=S)Nc1ccnc(-n2ccnc2)n1 | < 4.40
CCNC(=S)Nc1cc(-n2cnc(C(F)(F)F)c2)ncn1 | 6.02
